Experimental data published in patent US20050063956A1, “Method and device for attracting insects” (Colorado State University Research Foundation, priority 1998, published 2005).

Assays:
[1] = test system: neonate Western Corn root worm larvae; assay: Larval bioassay in soil tubs with granules; design: species or system Diabrotica species; settings: in vivo
Procedure: The bioassay comprises a laboratory test conducted in tubs (30×15×8 cm) filled with 3000 grams of soil. A single corn seed is placed 2 cm from one end of the tub. After the corn plant is 4 days old, 30 neonate Western Corn root worm larvae are introduced into the soil in the end of the tub opposite the corn seedings. Larvae are given 24 hours to attempt to locate and attack the corn plant. Larvae are recovered from the corn plant. For granule tests, a measured amount (0.25 gram of prepared granule is mixed into 1.0 kg. of soil (20% moisture). This soil is used to fill the center ⅓ of the bioassay tub.

[2] = test system: corn root worm neonate larvae; assay: Repellence test, larvae staying on paper (FIG. 78); format: in vivo; settings: in the presence of a feeding stimulus
[3] = test system: western corn root worm larvae; assay: Glass bead Y-tube choice test, corn volatiles versus CO2 (Example 19); design: species or system Diabrotica virgifera virgifera LeConte; settings: in vivo
Procedure: Bioassay Procedure. All bioassays were choice tests conducted using a vertical glass “Y” tube apparatus filled with 3-mm glass beads (Bernklau and Bjostad 1998) (FIG. 62). Volatile compounds were prepared in 35-ml polyethylene syringes (cat no. 106-0490, Sherwood Medical, St. Louis, Mo.) and a syringe pump (Sage Model 355, Fisher Scientific, Pittsburgh, Pa.) was used to provide, slow (1 ml per min) consistent delivery of the compounds into each choice arm of the bioassay apparatus. Twenty newly-hatched larvae (less than 12-hours-old) were used for each bioassay. Non-diapausing larvae were used for all experiments unless otherwise indicated below. For each choice test a minimum of 10 replicates were conducted.
Corn Headspace Versus CO2. Using the glass bead bioassay (Bernklau and Bjostad 1998) the headspace over germinating corn seeds was tested in a choice test against a series of CO2 concentrations to determine if corn volatiles (including CO2) were more attractive to the larvae than CO2 alone. A 35-ml syringe was filled with the headspace over 3-day-old germinating corn seedlings by means of a 25-cm length of slender Teflon tubing inserted into a hole drilled into the cover of the tub containing the corn seedlings.
Three different concentrations of CO2 were tested on the control side of the choice test. In the 1 st test, we used ambient room air on the control side, which contains a lower concentration of CO2 than the corn headspace (approximately 1.0 mmol/mol). In the 2nd test, we used GC-MS-SIM to match the CO2 concentration in the syringe on the control side to be equal to that measured in the syringe containing corn headspace. In the 3rd test, the syringe on the control side of the choice test contained a CO2 concentration twice that measured in the corn headspace. To prepare each of these control concentrations, a 2nd 35-ml polyethylene syringe was partially filled (approximately 5 ml) from a tank containing pure (100%) CO2 using a glass syringe. Headspace from a plastic tub containing only moist germination paper was drawn into the syringe to fill it, mixing the air and CO2 thoroughly at the same time. The gas mixtures in the polyethylene syringes were allowed to equilibrate for 15 minutes, and GC-MS-SIM was used to verify the CO2 concentrations in both syringes prior to each bioassay.
Corn Headspace Versus CO2 with Diapausing Larvae. The larvae used in our studies were from a colony of nondiapausing western corn root worm that has been maintained in our laboratory since 1986. We wished to determine if diapausing western corn root worm larvae would respond differently to corn volatiles than the colony larvae. Using the same method described above, the headspace over germinating corn seeds was tested in a choice test against a series of CO2 concentrations with western corn root worm larvae from a diapausing strain.
Corn Headspace-Coated Glass Beads versus CO2. In the previous experiments, corn volatiles were introduced into the bottom of the Y-tube and carried through the glass beads by the airstream from the syringe pump. We also tested the possibility that some volatile compounds may have been removed from the airstream by coating out on the glass beads on the bottom of the Y-tube where they would not be available for the larvae to detect at the choice point near the middle of the Y-tube. […]

Diabrotica larvae = settings: Jewett and Bjostad (1996); cited from earlier work

SMILES	role in attraction of larvae to corn roots (conclusion) [3]	other results
CN1COCN(Cc2cnc(Cl)s2)/C1=N\[N+](=O)[O-] [Thiamethoxam]		effect on control of larvae provided by attractant granules [1]: greatly improved; repellence to neonate larvae [2]: does not repel corn root worm neonate larvae
COc1ccc2[nH]c(=O)oc2c1 [MBOA, 6-methoxy-2-benzoxazolinone]	not involved in attraction of western corn root worm larvae	
CCCCCCCCCCCCCCCCCC(=O)O [stearic acid]	not involved in attraction of western corn root worm larvae	
ClCCl [dichloromethane]		attractiveness to larvae (Diabrotica larvae): attractive to Diabrotica larvae
CCCCCCCC/C=C\CCCCCCCC(=O)O [oleic acid]	not involved in attraction of western corn root worm larvae	
CCCCC/C=C\C/C=C\CCCCCCCC(=O)O [linoleic acid]	not involved in attraction of western corn root worm larvae	
